# Experimental data: patent US11696913B2, “Prolonged ectoparasite-controlling agent for animal” (MITSUI CHEMICALS AGRO, INC., priority 2017, dated 2023)
# What was measured:
# [1] = tested on: Ctenocephalides felis; assay: In vitro contact test with fleas; settings: read-out: insecticidal activity; for pest or weed control at 0.04 µg/cm2, 0.04 µg/cm2: dose 0.04 μg/cm^2, dead or moribund fleas after 48 h; for pest or weed control at 0.2 µg/cm2, 0.2 µg/cm2: dose 0.2 μg/cm^2, dead or moribund fleas after 48 h; for pest or weed control at 1 µg/cm2, 1 µg/cm2: dose 1 μg/cm^2, dead or moribund fleas after 48 h
# How it was run: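 Activity is the percentage of fleas dead or moribund at 48 h, judged by immobility or uncoordinated movement after tapping. Tubes were coated by evaporating acetone solutions (900 ppm gives 5 μg/cm^2), then held 5-10 adult fleas of both sexes at room temperature and ambient humidity.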
# [2] = tested on: Dermacentor variabilis; assay: In vitro contact test with adult hard ticks (Dermacentor variabilis); settings: read-out: acaricidal activity; for pest or weed control at 0.2 µg/cm2, 0.2 µg/cm2: dose 0.2 μg/cm^2, 48 h; for pest or weed control at 1 µg/cm2, 1 µg/cm2: dose 1 μg/cm^2, 48 h
# How it was run: (§1)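 Acaricidal activity = % ticks dead or moribund after 48 h contact with acetone-deposited compound on vial walls (e.g., 900 ppm solution → 5 μg/cm^2). Ambient conditions for R. sanguineus, 21° C./85% rel. hum. for other species; heat challenge at 45-50° C. separated climbers from moribund ticks.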
# [3] = tested on: Rhipicephalus sanguineus; assay: In vitro contact test with adult hard ticks (Rhipicephalus sanguineus); settings: read-out: acaricidal activity; for pest or weed control at 0.2 µg/cm2, 0.2 µg/cm2: dose 0.2 μg/cm^2, 48 h; for pest or weed control at 1 µg/cm2, 1 µg/cm2: dose 1 μg/cm^2, 48 h
# How it was run: as §1
# [4] = tested on: Rhipicephalus (Boophilus) microplus; assay: In vitro injection test with Rhipicephalus (Boophilus) microplus (BOOPMI Inj); settings: 168 h, laid fertile eggs after 7 days, read-out: acaricidal activity; for pest or weed control at 32 ng: dose 0.032 μg/animal injected; for pest or weed control at 0.00016 mg: dose 0.16 μg/animal injected; for pest or weed control at 0.0008 mg: dose 0.8 μg/animal injected
# How it was run: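 Five engorged adult females each get a 1 μl abdominal injection of compound dissolved and diluted in DMSO. Kept 7 days at 28° C./85% rel. hum.; percent activity rates egg laying and egg fertility (0% all fertile, 100% none laid or infertile).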
# [5] = tested on: Ctenocephalides felis; assay: Ctenocephalides felis in-vitro feeding test with fleas (CTECFE oral); settings: 48 hours, read-out: insecticidal feeding activity; for pest or weed control at 0.032 ppm: dose 0.032 ppm in citrated cattle blood; for pest or weed control at 0.16 ppm: dose 0.16 ppm in citrated cattle blood; for pest or weed control at 0.8 ppm: dose 0.8 ppm in citrated cattle blood; for pest or weed control at 4 ppm: dose 4 ppm in citrated cattle blood
# How it was run: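 Scored as percent fleas killed (0–100%) 48 hours after feeding began. Compound, dissolved in DMSO and diluted into citrated cattle blood, was offered via a parafilm membrane to roughly 20 adult male and female C. felis at about 37° C.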
# [6] = tested on: Spodoptera litura; assay: Insecticidal testing against common cutworm; format: in vivo; settings: foliar, 144 h, concentration 100 ppm, cabbage leaf dip, second-stage larvae, after 6 days, read-out: pesticidal rate
# Source text: Insecticidal Testing Against Common Cutworm (Spodoptera litura)
# [7] = tested on: Plutella xylostella; assay: Insecticidal testing against diamondback moth; format: in vivo; settings: foliar, 144 h, concentration 100 ppm, cabbage leaf dip, third-stage larvae, after 6 days, read-out: pesticidal rate
# Source text: Insecticidal Testing Against Diamondback Moth (Plutella xylostella)
# [8] = tested on: Laodelphax striatellus; assay: Insecticidal testing against small brown planthopper; format: in vivo; settings: 144 h, concentration 100 ppm, sprayed rice seedlings, after 6 days, read-out: pesticidal rate
# Procedure: Insecticidal Testing Against Small Brown Planthopper (Laodelphax striatellus)
# An additional test was carried out with 10 small brown planthoppers by preparing an acetone solution of the testing compound diluted to a predetermined concentration, spraying the solution onto rice seedlings and air drying the rice seedlings. The medicament was all used as received. The rice seedlings were placed in a constant-temperature room at 25° C., and the survival rate was investigated after 6 days. The test was carried out by means of one group of 10 pests.
# [9] = tested on: Amblyomma americanum; assay: In vitro contact test with hard ticks (Amblyomma americanum nymphs); settings: read-out: acaricidal activity; for pest or weed control at 0.2 µg/cm2, 0.2 µg/cm2: dose 0.2 μg/cm^2, 48 h; for pest or weed control at 1 µg/cm2, 1 µg/cm2: dose 1 μg/cm^2, 48 h
# How it was run: as §1
SMILES,"pest or weed control at 0.04 µg/cm2, 0.04 µg/cm2 [1]","pest or weed control at 0.2 µg/cm2, 0.2 µg/cm2 [1]","pest or weed control at 1 µg/cm2, 1 µg/cm2 [1]","pest or weed control at 0.2 µg/cm2, 0.2 µg/cm2 [2]","pest or weed control at 1 µg/cm2, 1 µg/cm2 [2]","pest or weed control at 0.2 µg/cm2, 0.2 µg/cm2 [3]",pest or weed control at 32 ng [4],pest or weed control at 0.00016 mg [4],pest or weed control at 0.0008 mg [4],pest or weed control at 0.032 ppm [5],pest or weed control at 0.16 ppm [5],pest or weed control at 0.8 ppm [5],pest or weed control at 4 ppm [5],pest or weed control at 100 ppm [6],pest or weed control at 100 ppm [7],pest or weed control at 100 ppm [8],"pest or weed control at 0.2 µg/cm2, 0.2 µg/cm2 [9]","pest or weed control at 1 µg/cm2, 1 µg/cm2 [9]","pest or weed control at 1 µg/cm2, 1 µg/cm2 [3]",pest or weed control at 0.0064 ppm ([5]; dose 0.0064 ppm in citrated cattle blood)
CN(C(=O)c1ccc(C(F)(F)F)nc1)c1cccc(C(=O)Nc2c(I)cc(C(F)(C(F)(F)F)C(F)(F)F)cc2OC(F)F)c1F [Compound 107],95%,95%,95%,90%,90%,90%,100%,100%,100%,95%,95%,95%,95%,≥ 70%,≥ 70%,≥ 70%,–,–,–,–
CN(C(=O)c1ccc(F)cc1)c1cccc(C(=O)Nc2c(I)cc(C(F)(C(F)(F)F)C(F)(F)F)cc2[S+]([O-])C(F)(F)F)c1F (stereo not drawn) [Compound 69],–,95%,95%,–,–,90%,–,100%,100%,95%,95%,95%,95%,≥ 70%,≥ 70%,≥ 70%,90%,90%,90%,–
CN(C(=O)c1ccc(Cl)c(Cl)c1)c1cccc(C(=O)Nc2c(I)cc(C(F)(C(F)(F)F)C(F)(F)F)cc2C(F)(F)F)c1F [Compound 44],–,95%,95%,90%,90%,90%,–,100%,100%,–,95%,95%,95%,≥ 70%,≥ 70%,≥ 70%,–,–,90%,–
CN(C(=O)c1ccc(Cl)c(Cl)c1)c1cccc(C(=O)Nc2c(I)cc(C(F)(C(F)(F)F)C(F)(F)C(F)(F)F)cc2C(F)(F)F)c1F (stereo not drawn) [Compound 75],–,95%,95%,–,–,90%,–,100%,100%,–,–,95%,95%,≥ 70%,≥ 70%,≥ 70%,–,90%,90%,–
CN(C(=O)c1ccc([N+](=O)[O-])cc1)c1cccc(C(=O)Nc2c(I)cc(C(F)(C(F)(F)F)C(F)(F)F)cc2C(F)(F)F)c1F [Compound 54],95%,95%,95%,90%,90%,90%,100%,100%,100%,95%,95%,95%,95%,≥ 70%,≥ 70%,≥ 70%,–,–,90%,–
CN(C(=O)c1ccc(C(F)(F)F)nc1)c1cccc(C(=O)Nc2c(Br)cc(C(F)(C(F)(F)F)C(F)(F)F)cc2OC(F)(F)F)c1F [Compound 98],–,95%,95%,90%,90%,–,–,100%,100%,–,–,95%,95%,≥ 70%,≥ 70%,≥ 70%,–,–,–,–
Cc1ccc(C(=O)N(C)c2cccc(C(=O)Nc3c(I)cc(C(F)(C(F)(F)F)C(F)(F)F)cc3C(F)(F)F)c2F)cc1 [Compound 58],95%,95%,95%,–,–,–,100%,100%,100%,–,–,95%,95%,≥ 70%,≥ 70%,≥ 70%,90%,90%,90%,–
CN(C(=O)c1ccc(C(F)(F)F)cc1)c1cccc(C(=O)Nc2c(I)cc(C(F)(C(F)(F)F)C(F)(F)F)cc2C(F)(F)F)c1F [Compound 59],–,95%,95%,–,–,90%,100%,100%,100%,–,95%,95%,95%,≥ 70%,≥ 70%,≥ 70%,–,90%,90%,–
CSc1ccc(C(=O)N(C)c2cccc(C(=O)Nc3c(I)cc(C(F)(C(F)(F)F)C(F)(F)F)cc3C(F)(F)F)c2F)cc1 [Compound 53],95%,95%,95%,90%,90%,–,–,100%,100%,95%,95%,95%,95%,≥ 70%,≥ 70%,≥ 70%,–,–,–,95%
CN(C(=O)c1ccc(C#N)cc1)c1cccc(C(=O)Nc2c(Br)cc(C(F)(C(F)(F)F)C(F)(F)F)cc2OC(F)(F)F)c1F [Compound 88],–,95%,95%,90%,90%,90%,100%,100%,100%,95%,95%,95%,95%,≥ 70%,≥ 70%,≥ 70%,–,–,90%,–
